In ChEMBL document CHEMBL4052645, “Discovery of potent and efficacious pyrrolopyridazines as dual JAK1/3 inhibitors” (Bioorg Med Chem Lett, 2017):

Legend:
[1] = biological target: Protein kinase C delta type (Homo sapiens) (UniProt Q05655); assay: Inhibition of human PKCD (Q328 to D676 residues) expressed in bacterial expression system assessed as residual activity at 50 nM by KINOMEscan assay relative to control
[2] = biological target: Platelet-derived growth factor receptor beta (Homo sapiens) (UniProt P09619); assay: Inhibition of wild-type human partial length PDGFRB (V582 to Y1009 residues) expressed in bacterial expression system assessed as residual activity at 50 nM by Kinomescan method relative to control
[3] = biological target: Aurora kinase C (Homo sapiens) (UniProt Q9UQB9); assay: Inhibition of wild-type human full length AURC (M1 to S275 residues) expressed in bacterial expression system assessed as residual activity at 50 nM by Kinomescan method relative to control
[4] = biological target: Serine/threonine-protein kinase 25 (Homo sapiens) (UniProt O00506); assay: Inhibition of wild-type human partial length YSK1 (V14 to H295 residues) expressed in bacterial expression system assessed as residual activity at 50 nM by Kinomescan method relative to control
[5] = biological target: Receptor-interacting serine/threonine-protein kinase 4 (Homo sapiens) (UniProt P57078); assay: Inhibition of wild-type human partial length ANKRD3 (M1 to V303 residues) expressed in mammalian expression system assessed as residual activity at 50 nM by Kinomescan method relative to control
[6] = biological target: Death-associated protein kinase 2 (Homo sapiens) (UniProt Q9UIK4); assay: Inhibition of wild-type human full length DAPK2 (M1 to S370 residues) expressed in bacterial expression system assessed as residual activity at 50 nM by Kinomescan method relative to control
[7] = biological target: Serine/threonine-protein kinase 35 (Homo sapiens) (UniProt Q8TDR2); assay: Inhibition of wild-type human partial length CLIK1 (G182 to A534 residues) expressed in bacterial expression system assessed as residual activity at 50 nM by Kinomescan method relative to control
Homo sapiens = species on record: Homo sapiens; assay: Inhibition of human partial length FLT3 ITD mutant expressed in bacterial expression system assessed as residual activity at 50 nM by Kinomescan method relative to control
[8] = biological target: Activin receptor type-1B (Homo sapiens) (UniProt P36896); assay: Inhibition of wild-type human ALK4 (S187 to I505 residues) expressed in bacterial expression system assessed as residual activity at 50 nM by Kinomescan method relative to control
[9] = biological target: 3-phosphoinositide-dependent protein kinase 1 (Homo sapiens) (UniProt O15530); assay: Inhibition of wild-type human full length PDK1 (M1 to Q556 residues) expressed in bacterial expression system assessed as residual activity at 50 nM by Kinomescan method relative to control
[10] = biological target: Tyrosine-protein kinase Lck (Homo sapiens) (UniProt P06239); assay: Inhibition of wild-type human partial length LCK (R207 to P509 residues) expressed in bacterial expression system assessed as residual activity at 50 nM by Kinomescan method relative to control
[11] = biological target: Tyrosine-protein kinase ITK/TSK (Homo sapiens) (UniProt Q08881); assay: Inhibition of wild-type human partial length ITK (R335 to L620 residues) expressed in bacterial expression system assessed as residual activity at 50 nM by Kinomescan method relative to control
[12] = biological target: Atypical kinase COQ8B, mitochondrial (Homo sapiens) (UniProt Q96D53); assay: Inhibition of wild-type human full length ADCK4 (M1 to S544 residues) expressed in bacterial expression system assessed as residual activity at 50 nM by Kinomescan method relative to control
[13] = biological target: Tyrosine-protein kinase ABL2 (Homo sapiens) (UniProt P42684); assay: Inhibition of wild-type human ARG (A248 to G542 residues) expressed in bacterial expression system assessed as residual activity at 50 nM by Kinomescan method relative to control
[14] = biological target: Cyclin-G-associated kinase (Homo sapiens) (UniProt O14976); assay: Inhibition of wild-type human partial length GAK (G13 to Y338 residues) expressed in bacterial expression system assessed as residual activity at 50 nM by Kinomescan method relative to control
[15] = biological target: Serine/threonine-protein kinase MARK1 (Homo sapiens) (UniProt Q9P0L2); assay: Inhibition of wild-type human partial length MARK1 (Q30 to T341 residues) expressed in bacterial expression system assessed as residual activity at 50 nM by Kinomescan method relative to control
[16] = biological target: Dual specificity protein kinase CLK4 (Homo sapiens) (UniProt Q9HAZ1); assay: Inhibition of wild-type human partial length CLK4 (R135 to K481 residues) expressed in bacterial expression system assessed as residual activity at 50 nM by Kinomescan method relative to control
[17] = biological target: Interleukin-1 receptor-associated kinase 4 (Homo sapiens) (UniProt Q9NWZ3); assay: Inhibition of wild-type human partial length IRAK4 (M1 to S460 residues) expressed in mammalian expression system assessed as residual activity at 50 nM by Kinomescan method relative to control
[18] = biological target: Vascular endothelial growth factor receptor 2 (Homo sapiens) (UniProt P35968); assay: Inhibition of wild-type human partial length KDR (R787 to P1253 residues) expressed in mammalian expression system assessed as residual activity at 50 nM by Kinomescan method relative to control
[19] = biological target: Dual specificity mitogen-activated protein kinase kinase 6 (Homo sapiens) (UniProt P52564); assay: Inhibition of wild-type human partial length MAP2K6 (K36 to D334 residues) expressed in bacterial expression system assessed as residual activity at 50 nM by Kinomescan method relative to control
[20] = biological target: Dual specificity mitogen-activated protein kinase kinase 7 (Homo sapiens) (UniProt O14733); assay: Inhibition of wild-type human full length MAP2K7 (M1 to R419 residues) expressed in mammalian expression system assessed as residual activity at 50 nM by Kinomescan method relative to control
[21] = biological target: Serine/threonine-protein kinase 38-like (Homo sapiens) (UniProt Q9Y2H1); assay: Inhibition of wild-type human partial length NDR2 (N34 to E447 residues) expressed in bacterial expression system assessed as residual activity at 50 nM by Kinomescan method relative to control
[22] = biological target: Mitogen-activated protein kinase 13 (Homo sapiens) (UniProt O15264); assay: Inhibition of wild-type human full length p38-delta (M1 to L365 residues) expressed in bacterial expression system assessed as residual activity at 50 nM by Kinomescan method relative to control
[23] = biological target: Serine/threonine-protein kinase D1 (Homo sapiens) (UniProt Q15139); assay: Inhibition of wild-type human partial length PKD1 (G551 to E870 residues) expressed in bacterial expression system assessed as residual activity at 50 nM by Kinomescan method relative to control
[24] = biological target: Transient receptor potential cation channel subfamily M member 6 (Homo sapiens) (UniProt Q9BX84); assay: Inhibition of wild-type human partial length TRPM6 (Q1723 to I1998 residues) expressed in mammalian expression system assessed as residual activity at 50 nM by Kinomescan method relative to control
Sequence of Transient receptor potential cation channel subfamily M member 6 (Homo sapiens) (Q9BX84 whole entry, the tested form may be a part): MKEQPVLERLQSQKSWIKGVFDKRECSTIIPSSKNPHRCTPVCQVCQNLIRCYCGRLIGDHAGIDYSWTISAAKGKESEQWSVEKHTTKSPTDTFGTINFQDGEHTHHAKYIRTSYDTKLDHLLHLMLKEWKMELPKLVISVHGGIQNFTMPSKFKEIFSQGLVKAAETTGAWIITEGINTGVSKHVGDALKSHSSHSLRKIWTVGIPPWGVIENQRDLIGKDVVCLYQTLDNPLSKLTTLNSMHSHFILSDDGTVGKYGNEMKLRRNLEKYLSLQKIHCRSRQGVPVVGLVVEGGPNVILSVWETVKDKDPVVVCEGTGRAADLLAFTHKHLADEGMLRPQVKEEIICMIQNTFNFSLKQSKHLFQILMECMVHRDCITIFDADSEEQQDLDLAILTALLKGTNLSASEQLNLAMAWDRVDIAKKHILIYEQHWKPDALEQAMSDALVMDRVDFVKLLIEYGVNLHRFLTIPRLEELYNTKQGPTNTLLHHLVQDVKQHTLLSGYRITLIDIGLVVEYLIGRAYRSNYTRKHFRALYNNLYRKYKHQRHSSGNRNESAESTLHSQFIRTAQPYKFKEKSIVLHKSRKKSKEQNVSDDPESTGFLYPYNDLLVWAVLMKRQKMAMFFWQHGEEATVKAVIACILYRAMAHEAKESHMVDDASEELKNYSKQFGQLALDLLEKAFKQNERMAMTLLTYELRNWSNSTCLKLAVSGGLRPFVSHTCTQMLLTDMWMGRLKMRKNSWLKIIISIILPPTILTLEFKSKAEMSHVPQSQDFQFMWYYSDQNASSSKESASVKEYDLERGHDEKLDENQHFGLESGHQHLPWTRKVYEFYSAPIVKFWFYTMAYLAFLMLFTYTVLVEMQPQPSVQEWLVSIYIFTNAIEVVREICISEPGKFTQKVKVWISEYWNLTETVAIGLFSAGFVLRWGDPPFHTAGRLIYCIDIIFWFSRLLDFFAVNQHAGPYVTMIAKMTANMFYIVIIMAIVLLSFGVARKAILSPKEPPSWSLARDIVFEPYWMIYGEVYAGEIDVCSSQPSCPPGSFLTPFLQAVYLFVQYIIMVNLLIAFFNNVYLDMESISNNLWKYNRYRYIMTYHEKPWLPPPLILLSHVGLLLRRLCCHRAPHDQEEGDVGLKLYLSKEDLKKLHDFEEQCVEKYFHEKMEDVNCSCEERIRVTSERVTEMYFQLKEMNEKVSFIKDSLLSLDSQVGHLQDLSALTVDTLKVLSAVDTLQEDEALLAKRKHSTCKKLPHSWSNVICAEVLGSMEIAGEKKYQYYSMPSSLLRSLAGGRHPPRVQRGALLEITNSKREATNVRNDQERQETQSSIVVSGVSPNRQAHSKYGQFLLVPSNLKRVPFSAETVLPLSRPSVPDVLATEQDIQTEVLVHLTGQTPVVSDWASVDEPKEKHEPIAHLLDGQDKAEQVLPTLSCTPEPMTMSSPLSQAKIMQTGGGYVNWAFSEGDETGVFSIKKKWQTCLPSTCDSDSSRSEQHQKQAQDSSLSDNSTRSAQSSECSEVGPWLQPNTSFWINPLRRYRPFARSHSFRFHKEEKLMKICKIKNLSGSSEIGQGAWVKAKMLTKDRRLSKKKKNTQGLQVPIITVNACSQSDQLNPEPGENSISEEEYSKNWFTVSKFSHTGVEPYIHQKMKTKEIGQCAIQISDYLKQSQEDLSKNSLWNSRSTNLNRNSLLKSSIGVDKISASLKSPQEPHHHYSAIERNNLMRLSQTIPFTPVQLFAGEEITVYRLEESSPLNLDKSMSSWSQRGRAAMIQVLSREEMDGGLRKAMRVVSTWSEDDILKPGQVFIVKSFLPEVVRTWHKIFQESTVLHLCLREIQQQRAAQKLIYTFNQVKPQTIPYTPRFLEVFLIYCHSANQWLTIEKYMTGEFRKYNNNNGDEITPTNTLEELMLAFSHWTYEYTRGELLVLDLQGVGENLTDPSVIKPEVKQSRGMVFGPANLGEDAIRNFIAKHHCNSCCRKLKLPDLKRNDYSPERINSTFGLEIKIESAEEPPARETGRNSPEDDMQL

Sequence of Atypical kinase COQ8B, mitochondrial (Homo sapiens) (Q96D53 whole entry, the tested form may be a part): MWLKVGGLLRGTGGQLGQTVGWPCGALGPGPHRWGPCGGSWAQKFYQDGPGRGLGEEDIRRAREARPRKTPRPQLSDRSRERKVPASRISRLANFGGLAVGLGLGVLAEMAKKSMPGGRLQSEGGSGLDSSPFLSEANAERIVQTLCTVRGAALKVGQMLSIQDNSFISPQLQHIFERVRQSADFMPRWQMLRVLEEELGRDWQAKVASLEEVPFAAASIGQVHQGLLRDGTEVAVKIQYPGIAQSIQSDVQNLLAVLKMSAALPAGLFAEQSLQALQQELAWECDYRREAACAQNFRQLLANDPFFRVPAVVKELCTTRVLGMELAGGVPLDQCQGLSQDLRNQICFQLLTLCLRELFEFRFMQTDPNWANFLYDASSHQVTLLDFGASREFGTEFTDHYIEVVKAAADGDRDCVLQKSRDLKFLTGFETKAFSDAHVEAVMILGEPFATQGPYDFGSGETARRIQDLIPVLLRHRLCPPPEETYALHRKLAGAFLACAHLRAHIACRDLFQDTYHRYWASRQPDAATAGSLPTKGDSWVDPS
Sequence of Tyrosine-protein kinase ITK/TSK (Homo sapiens) (Q08881 whole entry, the tested form may be a part): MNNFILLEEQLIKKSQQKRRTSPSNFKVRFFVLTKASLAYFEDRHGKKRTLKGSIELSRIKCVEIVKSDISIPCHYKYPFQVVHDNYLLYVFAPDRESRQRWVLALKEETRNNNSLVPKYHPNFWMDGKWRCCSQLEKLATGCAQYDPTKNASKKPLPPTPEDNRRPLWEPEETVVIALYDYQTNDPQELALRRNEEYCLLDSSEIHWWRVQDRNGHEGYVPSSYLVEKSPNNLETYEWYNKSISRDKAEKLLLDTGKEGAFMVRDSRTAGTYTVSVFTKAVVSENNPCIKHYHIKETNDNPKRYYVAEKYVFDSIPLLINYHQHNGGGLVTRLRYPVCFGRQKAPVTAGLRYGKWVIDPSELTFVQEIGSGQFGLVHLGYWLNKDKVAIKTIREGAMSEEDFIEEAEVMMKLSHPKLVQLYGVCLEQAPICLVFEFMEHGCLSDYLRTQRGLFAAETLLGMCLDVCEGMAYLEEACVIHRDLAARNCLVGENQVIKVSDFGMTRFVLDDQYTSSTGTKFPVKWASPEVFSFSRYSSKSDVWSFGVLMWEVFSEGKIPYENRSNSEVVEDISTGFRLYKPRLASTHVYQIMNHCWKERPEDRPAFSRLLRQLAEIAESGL
Sequence of Dual specificity protein kinase CLK4 (Homo sapiens) (Q9HAZ1 whole entry, looked up, the tested form may be a part): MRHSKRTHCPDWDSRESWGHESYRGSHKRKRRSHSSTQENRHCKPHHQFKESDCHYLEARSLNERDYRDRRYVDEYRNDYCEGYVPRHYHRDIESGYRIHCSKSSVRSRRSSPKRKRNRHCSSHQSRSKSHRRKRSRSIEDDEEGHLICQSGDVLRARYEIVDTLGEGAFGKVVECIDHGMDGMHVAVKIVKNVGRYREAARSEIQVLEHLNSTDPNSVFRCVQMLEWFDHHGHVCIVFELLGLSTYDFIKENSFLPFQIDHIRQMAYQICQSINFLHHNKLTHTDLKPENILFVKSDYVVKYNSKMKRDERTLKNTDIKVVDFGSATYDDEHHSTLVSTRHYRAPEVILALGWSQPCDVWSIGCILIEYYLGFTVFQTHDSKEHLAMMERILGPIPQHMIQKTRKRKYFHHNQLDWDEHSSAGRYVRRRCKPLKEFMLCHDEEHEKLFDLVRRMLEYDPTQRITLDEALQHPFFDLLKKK
Sequence of Protein kinase C delta type (Homo sapiens) (Q05655 whole entry, looked up, the tested form may be a part): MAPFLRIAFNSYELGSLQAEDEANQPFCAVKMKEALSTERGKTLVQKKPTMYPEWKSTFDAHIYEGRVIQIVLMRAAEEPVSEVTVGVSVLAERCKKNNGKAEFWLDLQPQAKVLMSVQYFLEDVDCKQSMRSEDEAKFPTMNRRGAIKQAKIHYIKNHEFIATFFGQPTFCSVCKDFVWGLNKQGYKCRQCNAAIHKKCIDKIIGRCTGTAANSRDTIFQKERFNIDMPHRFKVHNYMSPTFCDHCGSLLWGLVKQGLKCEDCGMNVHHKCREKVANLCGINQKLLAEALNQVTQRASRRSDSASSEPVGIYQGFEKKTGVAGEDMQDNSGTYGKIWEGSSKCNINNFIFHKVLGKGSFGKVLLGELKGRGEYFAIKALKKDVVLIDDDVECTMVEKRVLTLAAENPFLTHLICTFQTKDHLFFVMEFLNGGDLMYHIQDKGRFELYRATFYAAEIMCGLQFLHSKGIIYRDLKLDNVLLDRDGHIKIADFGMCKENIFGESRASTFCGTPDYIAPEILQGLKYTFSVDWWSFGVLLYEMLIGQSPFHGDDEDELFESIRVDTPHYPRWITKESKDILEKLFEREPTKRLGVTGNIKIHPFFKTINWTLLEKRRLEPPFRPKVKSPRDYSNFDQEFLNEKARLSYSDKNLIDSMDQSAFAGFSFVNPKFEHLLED
Sequence of Serine/threonine-protein kinase 25 (Homo sapiens) (O00506 whole entry, looked up, the tested form may be a part): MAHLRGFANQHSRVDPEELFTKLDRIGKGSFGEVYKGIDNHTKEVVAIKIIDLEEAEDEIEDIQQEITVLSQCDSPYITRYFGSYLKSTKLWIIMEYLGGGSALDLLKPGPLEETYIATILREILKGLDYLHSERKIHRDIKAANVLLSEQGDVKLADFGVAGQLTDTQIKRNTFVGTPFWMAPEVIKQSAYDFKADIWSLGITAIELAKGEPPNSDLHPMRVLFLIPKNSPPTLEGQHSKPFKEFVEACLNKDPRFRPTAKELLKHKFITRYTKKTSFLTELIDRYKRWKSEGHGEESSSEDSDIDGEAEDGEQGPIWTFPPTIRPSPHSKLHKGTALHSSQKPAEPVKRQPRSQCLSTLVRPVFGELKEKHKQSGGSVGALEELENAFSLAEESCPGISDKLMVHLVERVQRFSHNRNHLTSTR
Sequence of Aurora kinase C (Homo sapiens) (Q9UQB9 whole entry, the tested form may be a part): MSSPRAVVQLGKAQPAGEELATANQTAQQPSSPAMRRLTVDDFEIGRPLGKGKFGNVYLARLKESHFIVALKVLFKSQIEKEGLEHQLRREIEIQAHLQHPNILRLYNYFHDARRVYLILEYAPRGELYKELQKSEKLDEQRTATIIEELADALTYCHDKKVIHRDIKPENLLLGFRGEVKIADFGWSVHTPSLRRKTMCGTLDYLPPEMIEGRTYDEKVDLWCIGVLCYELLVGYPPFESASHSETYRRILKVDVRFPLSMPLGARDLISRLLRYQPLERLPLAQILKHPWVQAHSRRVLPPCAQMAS

| SMILES | Activity [1] | Activity [2] | Activity [3] | Activity [4] | Activity [5] | Activity [6] | Activity [7] | Activity (Homo sapiens) | Activity [8] | Activity [9] | Activity [10] | Activity [11] | Activity [12] | Activity [13] | Activity [14] | Activity [15] | Activity [16] | Activity [17] | Activity [18] | Activity [19] | other results |
| --- | --- | --- | --- | --- | --- | --- | --- | --- | --- | --- | --- | --- | --- | --- | --- | --- | --- | --- | --- | --- | --- |
| CC1(C)[C@H](Nc2c(C(N)=O)cnn3cc(-c4ccccc4)cc23)CC[C@]1(C)N | 9.5% | 19% | 42% | 58% | 59% | 71% | 74% | 80% | 82% | 82% | 87% | 89% | 91% | 91% | 91% | 99% | 100% | 100% | 100% | 100% | Activity [20]: 100%; Activity [21]: 100%; Activity [22]: 100%; Activity [23]: 100%; Activity [24]: 100% |
| COc1ccc(-c2cc3c(N[C@@H]4CC[C@](C)(N)C4(C)C)c(C(N)=O)cnn3c2)cn1 | 30% | 64% | 82% | 74% | 98% | 92% | 87% | 79% | 66% | 96% | 100% | 90% | 100% | 91% | 100% | 91% | 100% | 100% | 88% | 78% | Activity [20]: 55%; Activity [21]: 100%; Activity [22]: 100%; Activity [23]: 96%; Activity [24]: 90% |
